One test has as its target T1, Central CCK Receptors (Mus musculus, UniProt P56481).
T1 sequence (P56481 1-453): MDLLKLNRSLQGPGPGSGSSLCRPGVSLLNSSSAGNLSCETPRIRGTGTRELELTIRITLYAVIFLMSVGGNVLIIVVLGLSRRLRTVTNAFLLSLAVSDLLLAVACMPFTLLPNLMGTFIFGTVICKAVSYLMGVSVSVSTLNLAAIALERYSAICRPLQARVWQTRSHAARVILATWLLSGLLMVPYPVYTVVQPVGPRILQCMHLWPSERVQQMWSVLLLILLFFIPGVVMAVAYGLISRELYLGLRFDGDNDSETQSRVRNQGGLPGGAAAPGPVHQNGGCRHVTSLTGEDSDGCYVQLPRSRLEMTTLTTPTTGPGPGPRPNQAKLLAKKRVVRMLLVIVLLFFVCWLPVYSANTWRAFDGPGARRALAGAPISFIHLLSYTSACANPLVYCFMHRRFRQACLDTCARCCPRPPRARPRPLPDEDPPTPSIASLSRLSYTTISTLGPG
The test can be described thus: Binding to central CCK receptors (tritiated-pentagastrin displacement, cerebral cortical membranes).

Test [1] can be described thus: Palatable Diet Feeding assay. Format: in vivo, rat. To be noted: dose producing 50% of the maximum effect possible (zero food intake). The method, then:
In the Palatable Diet Feeding assay, adult male Hooded Lister rats weighing between 200-400 g were housed individually and trained to eat a palatable diet. This diet consisted of Nestles sweetened condensed milk, powdered rat food and rat water which when blended together set to a firm consistency. […] The intake of palatable diet was measured by weighing the food container before and after the 30-minute access period (limits of accuracy 0.1 g). Care was taken to collect and correct for any spillage of the diet. Rats had free access to pellet food and water except during the 30-minute test period.
After the training period, dose-response curves were constructed for CCK8 and several representative compounds of the present invention (n=8-10 rats per dose level).

Setting [2] is: read-out: Binding to Central CCK Receptors Ki, displacement of 2 nM tritiated-pentagastrin, mouse cerebral cortical membranes.

Where two headings read alike, the source gives them in different places.

Procedure for Central CCK Receptors: The biological activity of compounds of the present invention was evaluated employing an initial screening test which rapidly and accurately measured the binding of the tested compound to known CCK receptor sites.
The resulting suspension was centrifuged, the supernate was discarded, and the pellet was washed by resuspension in Tris-HCl buffer followed by recentrifugation.
In saturation studies, cerebral cortical membranes were incubated at 23° C. for 120 minutes in a final volume of 500 μliter of Hepes incubation buffer (pH 7.2) together with 0.2-20 nM tritiated-pentagastrin (Amersham International, England).
In each case, the nonspecific binding was defined as that persisting in the presence of the unlabeled octapeptide CCK26-33 (10^-6 M).
Following incubation, radioactivity bound to membranes was separated from that free in solution by rapid filtration through Whatman GF/B filters and washed three times with 4 mL of ice cold Tris-HCl buffer.
The specific binding to CCK receptor sites was defined as the total bound tritiated-pentagastrin minus the amount of tritiated-pentagastrin bound in the presence of 10^-6 octapeptide, CCK26-33.
The inhibition constant (Ki) of the test compound was then calculated according to the Cheng-Prusoff equation: [formula] where [L] is the concentration of radiolabel and Ka is the equilibrium dissociation constant.

Turning to `CC(Cc1c[nH]c2ccccc12)(NC(=O)OC1CC2CCC1(C)C2(C)C)C(=O)NCCc1ccccc1` (racemic) [Example 7, (±)-Endo-1,7,7-trimethylbicyclo[2.2.1]hept-2-yl-[1-(1H-indol-3-ylmethyl)-1-methyl-2-oxo-2-[(2-phenylethyl)amino]ethyl]-carbamate], the inhibition constant Ki on Central CCK Receptors (setting [2]) is 760 nM.

Consider `CC(Cc1c[nH]c2ccccc12)(NC(=O)O[C@@H]1CCCC[C@H]1Cl)C(=O)NC(CO)Cc1ccccc1` (mixture of isomers) [Example 14, (±)-trans-2-Chlorocyclohexyl-[2-[[1-(hydroxymethyl)-2-phenylethyl]amino]-1-(1H-indol-3ylmethyl)-1-methyl-2-oxoethyl]carbamate], for which the “Inhibition of Feeding on Rat Palatable Diet Assay I.P. MPE50” value in test [1] is given as 19.5 mg/kg. Besides, on Central CCK Receptors (setting [2]), the Ki was 10500 nM.

Take `CC(Cc1c[nH]c2ccccc12)(NS(=O)(=O)CC12CCC(CC1=O)C2(C)C)C(=O)NC(CO)Cc1ccccc1` (stereo not drawn) [Example 18, α-[[[(7,7-dimethyl-2-oxobicyclo[2.2.1]-hept-1-yl)-methyl]sulfonyl]amino]-N-[1-(hydroxymethyl)-2-phenylethyl]-α-methyl-1H-indole-3-propanamide-(Trpcenter R, phenylalanylcenter S)]: the Ki on Central CCK Receptors (setting [2]) is 21000 nM.

For `CC(Cc1c[nH]c2ccccc12)(NC(=O)OC1C2CC3CC(C2)CC1C3)C(=O)NC(CO)Cc1ccccc1` (stereo not drawn) [Example 15, [R-(R*,S*)]-Tricyclo[3.3,1.1^3,7]dec-2-yl-[2-[[1-(hydroxymethyl)-2-phenylethyl]amino]-1-(1H-indol-3-ylmethyl)-1-methyl-2-oxoethyl]carbamate], the “Inhibition of Feeding on Rat Palatable Diet Assay I.P. MPE50” value in test [1] was found to be 15.7 mg/kg. Further, the inhibition constant Ki at Central CCK Receptors (setting [2]) was 26 nM.

On to `CC(Cc1c[nH]c2ccccc12)(NC(=O)OC1C2CC3CC(C2)CC1C3)C(=O)NC(CNC(=O)C=CC(=O)O)Cc1ccccc1` (stereo not drawn) [Example 19A, [R-(R*,S*)]-4-[[2-(1H-Indol-3-yl)-2-methyl-1-oxo-2-[[tricyclo[3.3.1.1^3,7]dec-2-yloxylcarbonyl]amino]propyl]-amino]-3-phenylpropyl]amino]-4-oxo-2-butenoic acid], for which the Ki at Central CCK Receptors (setting [2]) turned out to be 0.08 nM.

Consider `CC(Cc1c[nH]c2ccccc12)(NC(=O)O[C@@H]1CCCC[C@H]1Cl)C(=O)NCCc1ccccc1` (mixture of isomers) [Example 2, (±)-Trans-2-chlorocyclohexyl [1-(1H-indol-3-ylmethyl)-1-methyl-2-oxo-2-[(2-phenylethyl)amino]ethyl]carbamate], for which the “Inhibition of Feeding on Rat Palatable Diet Assay I.P. MPE50” value in test [1] is listed as 9.6 mg/kg. Further, the affinity at Central CCK Receptors corresponds to a Ki of 3150 nM.

Take `CC1CCCCC1OC(=O)NC(C)(Cc1c[nH]c2ccccc12)C(=O)NC(CNC(=O)C=CC(=O)O)Cc1ccccc1` (single isomer, unassigned) [Example 43, 2-Butenoic acid, 4-[[2-[[3-)1H-indol-3-yl)-2-methyl-2-[[[(2-methyl-1-cyclohexyl)oxy]carbonyl]amino]-1-oxopropyl]amino]-3-phenylpropyl]amino]-4-oxo-[IR[1α[R*(S*)], 2β]]-((-)-isomer)]: on Central CCK Receptors (setting [2]), the Ki stood at 4 nM.

Regarding `C[C@](Cc1c[nH]c2ccccc12)(NC(=O)CC12CC3CC(CC(C3)C1)C2)C(=O)N[C@H](CO)Cc1ccccc1` (relative stereo) [Example 5, [R-(R*,S*)]-N-[1-(hydroxymethyl)-2-phenylethyl]-α-methyl-α-[[tricyclo[3.3.1.1^3,7]dec-1-ylacetyl)-amino]-1H-indole-3-propanamide], the “Inhibition of Feeding on Rat Palatable Diet Assay I.P. MPE50” value in test [1] was determined as 33.6 mg/kg. On Central CCK Receptors (setting [2]), the Ki was found to be 2230 nM.

Regarding `CC(Cc1c[nH]c2ccccc12)(NC(=O)O[C@@H]1CCCC[C@H]1Cl)C(=O)NC(CO)Cc1ccccc1` (mixture of isomers) [Example 3, (±)-Trans-2-chlorocyclohexyl [2-[[1-(hydroxymethyl)-2-phenyethyl]amino]-1-(1H-indol-3-ylmethyl)-1-methyl-2-oxoethyl]carbamate. (D-tryptophan residue; L-phenylalanine residue).], the “Inhibition of Feeding on Rat Palatable Diet Assay I.P. MPE50” value in test [1] is 30.7 mg/kg. In addition, the Ki at Central CCK Receptors (setting [2]) worked out at 260 nM.

In the case of `CC(Cc1c[nH]c2ccccc12)(NC(=O)OC1C2CC3CC(C2)CC1C3)C(=O)NCC(NC(=O)CCc1nn[nH]n1)c1ccccc1` (stereo not drawn) [Example 33, Tricyclo[3.3.1.1^3,7]dec-2-yl [R,(R*,S*]-[1-(1H-indol-3-ylmethyl)-1-methyl-2-oxo-2-[[2-[[1-oxo-3-(1H -tetrazol-5-yl)propyl]amino]-2-phenylethyl]-amino]ethyl]carbamic acid ester], the inhibition constant Ki at Central CCK Receptors (setting [2]) was 6 nM.

With `CC(Cc1c[nH]c2ccccc12)(NC(=O)OC1CC2CCC1C2)C(=O)NCCc1ccccc1` (racemic) [Example 10, (±)-Endo-bicyclo[2.2.1]hept-2-yl [1-(1H-indol-3-ylmethyl)-1-methyl-2-oxo-2-[(2-phenylethyl)amino]ethyl]carbamate], at Central CCK Receptors (setting [2]), the inhibitory constant (Ki) amounted to 8800 nM.

Regarding `CC(Cc1c[nH]c2ccccc12)(NC(=O)OC1C2CC3CC(C2)CC1C3)C(=O)NC(CNC(=O)CCC(=O)O)Cc1ccccc1` (stereo not drawn) [Example 19, [R-(R*,S*)]-4-[[2-[[3-(1H-indol-3-yl)-2-methyl-1-oxo-2-[[(tricyclo[3.3.1.1^3,7]dec-2-yloxy)carbonyl]amino]propyl]amino]-3-phenylpropyl]amino]-4-oxobutanoic acid], at Central CCK Receptors (setting [2]), the Ki turned out to be 14 nM.

For `CC(Cc1c[nH]c2ccccc12)(NC(=O)OC1CCCCC1Cl)C(=O)NC(COC(=O)CCC(=O)O)Cc1ccccc1` (stereo not drawn) [Example 4, 2-[[2-[[[2-chlorocyclohexyl)oxy]-carbonyl]amino]-3-(1H-indol-3-yl)-2-methyl-1-oxo-propyl]amino]-3-phenylpropyl butanedioate], the “Inhibition of Feeding on Rat Palatable Diet Assay I.P. MPE50” value in test [1] is listed as > 20 mg/kg. On Central CCK Receptors (setting [2]), the Ki stood at 170 nM.

With `C[C@](Cc1c[nH]c2ccccc12)(NC(=O)OC1CC2CC3CC(C2)C1C3)C(=O)N[C@H](CO)Cc1ccccc1` (stereo partly drawn) [Example 11], the Ki on Central CCK Receptors was found to be 54 nM.

`CC(Cc1c[nH]c2ccccc12)(NC(=O)OC12CC3CC(CC(C3)C1)C2)C(=O)NCCc1ccccc1` (racemic) [Example 1, (±)-Tricyclo[3.3.1^3,7]dec-1-yl [1-(1H-indol-3-ylmethyl)-1-methyl-2-oxo-2-[(2-phenylethyl)amino]ethyl]carbamate]: the Ki on Central CCK Receptors (setting [2]) amounted to 1230 nM.

`CC(Cc1c[nH]c2ccccc12)(NC(=O)OC1CC2CCC1C2)C(=O)NCCc1ccccc1` (racemic) [Example 9, (±)-Exo-bicyclo[2.2.1]hept-2-yl [1-(1H-indol-3-ylmethyl)-1-methyl-2-oxo-2-[(2-phenylethyl)amino]ethyl]carbamate]: the Ki on Central CCK Receptors (setting [2]) is 7500 nM.

As to `CC(Cc1c[nH]c2ccccc12)(NC(=O)OC1C2CC3CC(C2)CC1C3)C(=O)NCC(NC(=O)C1CC1C(=O)O)c1ccccc1` (racemic) [Example 32, 2-[[[2-[[3-(1H-indol-3-yl)-2-methyl-1-oxo-2-[[(tricyclo-[3.3.1.1^3,7]dec-2-yloxy)carbonyl]amino]propyl]amino]-1-phenylethyl]amino]carbonyl]cyclopropanecarboxylic acid (cyclopropane ring is trans-(±)othercentersare R)], the inhibitory constant (Ki) at Central CCK Receptors (setting [2]) came to 5.1 nM.

Turning to `CC(Cc1c[nH]c2ccccc12)(NC(=O)OC1CC2CCC1(C)C2(C)C)C(=O)NCCc1ccccc1` (racemic) [Example 8, (±)-Exo-1,7,7-trimethylbicyclo[2.2.1]hept-2-yl-[1-(1H-indol-3-ylmethyl)-1-methyl-2-oxo-2-[(2-phenylethyl)amino]ethyl]-carbamate], the Ki at Central CCK Receptors (setting [2]) worked out at 840 nM.

`CC1CCCCC1OC(=O)NC(C)(Cc1c[nH]c2ccccc12)C(=O)NCC(NC(=O)C=CC(=O)O)c1ccccc1` (single isomer, unassigned) [Example 41, 2-Butenoic acid, 4-[[2-[[3-(1H-indol-3-yl)-2-methyl-2-[[[(2-methyl-1-cyclohexyl)oxy]carbonyl]amino]-1-oxopropyl]amino]-1-phenylethyl]amino]-4-oxo-, [1R -[1α[R*(R*)], 2β]]-((-)-isomer)]: the Ki on Central CCK Receptors (setting [2]) turned out to be 0.29 nM.

`CC(Cc1c[nH]c2ccccc12)(NC(=O)OC1CC2CC3CC(C2)C1C3)C(=O)NC(COC(=O)CCC(=O)O)Cc1ccccc1` (stereo not drawn) [Example 12, 2-[3-1H-indol-3-yl)-2-methyl-2-[[[(octahydro-2,5-methano-1H-inden-7-yl)oxy]carbonyl]amino]-1-oxopropyl]-3-phenylpropyl butanedioate]: at Central CCK Receptors (setting [2]), the Ki came out at 85 nM.

For `CC1CCCCC1OC(=O)NC(C)(Cc1c[nH]c2ccccc12)C(=O)NCC(NC(=O)CCC(=O)O)c1ccccc1` (single isomer, unassigned) [Example 40, Butanoic acid, 4-[[2-[[3-(1H-indol-3-yl)-2-methyl-2-[[[(2-methyl-1-cyclohexyl)oxy]carbonyl]amino]-1-oxopropyl]amino]-1-phenylethyl]amino]-4-oxo-[1R-[1α[R*(R*)]2β]]-((-)-isomer)], at Central CCK Receptors (setting [2]), the Ki worked out at 3.9 nM.

Source of the values: patent publication US5622983A, “N-substituted cycloalkyl and polycycloalkyl α-substituted Trp-Phe- and phenethylamine derivatives” (Warner-Lambert Company, priority 1995, dated 1997).
